From patent US20260263334A1, “COMPOSITIONS CONTAINING NITRATE-RICH FOODS AND EXTRACTS FOR SHIFTING THE ORAL MICROBIOME” (WM. WRIGLEY JR. COMPANY, priority 2023, published 2026)

Columns and labels:
[1] = system: salivary bacteria; test: nitrate reductase (NR) activity of human salivary bacteria (Griess reagent); format: cell-based
Description: Human stimulated saliva was collected from two subjects and tested for NR activity in the presence of nitrate, cysteine and a combination of nitrate and cysteine. The Griess test was used for nitrite production.
Two subjects were evaluated in this study. The subjects refrained from oral hygiene and eating the night before and morning of the test and their stimulated saliva was collected after chewing 1 g of gum base for 5 minutes. The saliva samples were stored immediately on ice, diluted 1:1 with D.I. H2O and used as a bacterial source for nitrate reductase (NR) activity testing under anaerobic condition.
The contents in each reaction mixture contained (mL):
Detection of the end product of NR and nitrite was by the Griess reagent at OD550 nm readings.

[2] = system: Aggregatibacter actinomycetemcomitans (A.a.); test: nitrate reductase (NR) activity of A.a. (Griess test); format: cell-based; conditions: for NR activity (OD) of A.a in the presence of cysteine: Cysteine 1%, 0.3% nitrate source
Description: (§1) For evaluation of nitric oxide producing capability of oral bacteria, overnight cultures of test organisms were washed once and transferred into a medium without any nitrate or nitrite compounds. A 0.5% (or 1%) KNO3 was added to the medium, and further incubated anaerobically at 37° C. for 24-48 hours. The concentration of nitrite (due to reduction of nitrate by nitrate reductase) was determined by Griess Test over a desired period of time.
(§2) To examine the effect of natural and chemical antimicrobial agents on NO production, test bacteria were pre-exposed to magnolia bark extract (MBE) (a natural germ-kill compound), peppermint oil, and chlorhexidine (CHX). The activities of nitrate reductase from oral bacteria were assayed by Griess test as described above. No treatment controls were included for each test bacterial species. The production of nitrite was reduced if the test antimicrobial compounds affected the nitrate reductase activity. Dose response curves were prepared.
A. actinomycetemcomitans (A.a.) was grown anaerobically in THB broth supplemented with 1% yeast extract with 0.001% Hemin, and 0.0001% Vitamin K.
The nitrate source KNO3 (0.1% final) was added to respective growth media for individual test bacteria and incubated for 24-48 hours, then 20 μl of the culture broth was withdrawn and tested for nitrite with Griess reagent.
Test bacteria were grown in respective media anaerobically for 48 hours. Cells were centrifuged and re-suspended in buffer or fresh medium for NR activity testing. […]
(§3) Test bacteria cells were incubated with 1% cysteine in growth medium and 0.3% of a nitrate source. Controls contained no cysteine.

[3] = system: saliva; test: ex vivo production of H2S by saliva (headspace, gas chromatograph with chemiluminescent sulfur detector); format: cell-based, human; conditions: saliva mixed with cysteine
[4] = system: Veillonella atypica (ATCC 17744) (V.a.); test: nitrate reductase (NR) activity of V.a (Griess test); format: cell-based; conditions: Cysteine 1%
Description: as §1, §2
V. atypica was grown in RCM medium without (NH4)2SO4 (to avoid the NH4 affecting Griess reagent); and without agar (0.05%, to avoid affecting the OD measurement).
The method used was the same as that for A.a., except the V.a cell concentration was adjusted to OD550 nm=0.7 (10^8 CFR/ml) in Reduced Transport buffer. The NR activity was also determined in the same buffer system. […]
as §3

| SMILES | NR activity of salivary bacteria (nitrite production) ([1]; KNO3 3%, saliva of two subjects) | NR activity (OD) of A.a in the presence of cysteine ([2]; 1st trial, 2 hr) | NR activity (OD) of A.a in the presence of cysteine ([2]; 1st trial, 3 hr) | NR activity (OD) of A.a in the presence of cysteine ([2]; 2nd trial, 2 hr) | NR activity (OD) of A.a in the presence of cysteine ([2]; 2nd trial, 3 hr) | NR activity (OD) of A.a in the presence of cysteine ([2]; 3rd trial, 2 hr) | NR activity (OD) of A.a in the presence of cysteine ([2]; 3rd trial, 3 hr) | NR activity of A.a ([2]; addition of cysteine (1%)) | reduction of NR activity ([1]; addition of cysteine, pooled saliva from 4 subjects, OD600 nm=0.7, 1.0 and 1.5) | NR activity of salivary bacteria ([1]; cysteine 0.25% in addition to nitrate (KNO3 3%), saliva of two subjects) | H2S generated in the headspace air [3] | NR activity (OD) of V.a in the presence of cysteine ([4]; 1st trial, 2 hr) | NR activity (OD) of V.a in the presence of cysteine ([4]; 1st trial, 3 hr) | NR activity (OD) of V.a in the presence of cysteine ([4]; 2nd trial, 2 hr) | NR activity (OD) of V.a in the presence of cysteine ([4]; 2nd trial, 3 hr) | NR activity (OD) of V.a in the presence of cysteine ([4]; 3rd trial, 2 hr) | NR activity (OD) of V.a in the presence of cysteine ([4]; 3rd trial, 3 hr) |
| --- | --- | --- | --- | --- | --- | --- | --- | --- | --- | --- | --- | --- | --- | --- | --- | --- | --- |
| O=[N+]([O-])[O-].[K+] [KNO3, potassium nitrate] | induced NR activity | – | – | – | – | – | – | – | – | – | – | – | – | – | – | – | – |
| N[C@@H](CS)C(=O)O [cysteine, L-cysteine] | – | 0.207 OD | 0.672 OD | 0.994 OD | 0.928 OD | 0.832 OD | 0.919 OD | not significantly affected | 23-49% | decrease in NR activity | 20 ppm | 0.372 OD | 0.711 OD | 0.487 OD | 0.808 OD | 1.139 OD | 1.144 OD |
